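Each compound was tested at five concentrations against cells in 96-well plates for 48 hours. GI50: concentration for 50% inhibition of growth.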 Active and inactive are the calls of the source. Cut-off read from the data, not from the text of the source: active = GI50 up to about 1.1 µM and inactive = higher.
What was measured:
Assay in all cases: NCI anticancer screen, dose series, 48 h
CAKI-1 = tested on: CAKI-1
DU-145 = tested on: DU-145
EKVX = tested on: EKVX
HOP-62 = tested on: HOP-62
Hs-578T = tested on: Hs-578T
IGROV-1 = tested on: IGROV-1
K562 = tested on: K562
KM12 = tested on: KM12
M14 = tested on: M14
NCI-H460 = tested on: NCI-H460
NCI/ADR-RES = tested on: NCI/ADR-RES
OVCAR-4 = tested on: OVCAR-4
OVCAR-5 = tested on: OVCAR-5
PC-3 = tested on: PC-3
SF-268 = tested on: SF-268
SK-MEL-28 = tested on: SK-MEL-28
SK-MEL-5 = tested on: SK-MEL-5
UACC-62 = tested on: UACC-62
SK-OV-3 = tested on: SK-OV-3
SF-539 = tested on: SF-539

Which results are given for `Cc1ccc2c(=O)c(-c3n[nH]c(=S)s3)c[nH]c2n1`?
GI50 (CAKI-1): > 100 µM (inactive); GI50 (DU-145): > 100 µM (inactive); GI50 (EKVX): > 100 µM (inactive); GI50 (HOP-62): > 100 µM (inactive); GI50 (Hs-578T): > 100 µM (inactive); GI50 (IGROV-1): > 100 µM (inactive); GI50 (K562): > 100 µM (inactive); GI50 (KM12): > 100 µM (inactive); GI50 (M14): > 100 µM (inactive); GI50 (NCI-H460): > 100 µM (inactive); GI50 (NCI/ADR-RES): > 100 µM (inactive); GI50 (OVCAR-4): > 100 µM (inactive); GI50 (OVCAR-5): > 100 µM (inactive); GI50 (PC-3): > 100 µM (inactive); GI50 (SF-268): > 100 µM (inactive); GI50 (SK-MEL-28): > 100 µM (inactive); GI50 (SK-MEL-5): > 100 µM (inactive); GI50 (UACC-62): > 100 µM (inactive)

How did the GI50 (CAKI-1) turn out when `COc1ccc(N2C(=O)C3c4[nH]c5ccc(C)cc5c4C4CCC(C(C)C)CC4C3C2=O)cc1` (centres undefined) was run?
Its GI50 is > 100 µM (inactive).

What about the GI50 (DU-145) of the same molecule?
The GI50 was > 100 µM (inactive).

And the GI50 (EKVX)?
The GI50 was > 100 µM (inactive).

And the GI50 (HOP-62)?
The GI50 was 45.4 µM (inactive).

What about the GI50 (Hs-578T) of the same molecule?
The GI50 was 57.8 µM (inactive).

And the GI50 (IGROV-1)?
The GI50 was > 100 µM (inactive).

And the GI50 (K562)?
Its GI50 is > 100 µM (inactive).

What about the GI50 (KM12) of the same molecule?
Its GI50 is > 100 µM (inactive).

What about the GI50 (M14) of the same molecule?
The GI50 was > 100 µM (inactive).

And the GI50 (NCI-H460)?
The GI50 was > 100 µM (inactive).

And the GI50 (NCI/ADR-RES)?
The GI50 was > 100 µM (inactive).

And the GI50 (OVCAR-4)?
The GI50 was > 100 µM (inactive).

And the GI50 (OVCAR-5)?
The GI50 was > 100 µM (inactive).

What about the GI50 (PC-3) of the same molecule?
Its GI50 is > 100 µM (inactive).

What about the GI50 (SF-268) of the same molecule?
The GI50 was 75.5 µM (inactive).

What about the GI50 (SK-MEL-28) of the same molecule?
Its GI50 is > 100 µM (inactive).

And the GI50 (SK-MEL-5)?
Its GI50 is > 100 µM (inactive).

And the GI50 (SK-OV-3)?
Its GI50 is > 100 µM (inactive).

What about the GI50 (UACC-62) of the same molecule?
The GI50 was > 100 µM (inactive).

For `COc1ccc(N(C(=O)Nc2ccc(Cl)c(Cl)c2)C2c3cccn3C(=O)N2c2ccc(Cl)c(Cl)c2)cc1` (centres undefined), which GI50 (CAKI-1) is on record?
The GI50 was 26.9 µM (inactive).

And the GI50 (DU-145)?
Its GI50 is > 100 µM (inactive).

And the GI50 (EKVX)?
The GI50 was 42.3 µM (inactive).

What about the GI50 (Hs-578T) of the same molecule?
The GI50 was > 100 µM (inactive).

What about the GI50 (IGROV-1) of the same molecule?
Its GI50 is > 100 µM (inactive).

And the GI50 (K562)?
The GI50 was 13.8 µM (inactive).

And the GI50 (KM12)?
Its GI50 is 30.5 µM (inactive).

What about the GI50 (M14) of the same molecule?
Its GI50 is 19.1 µM (inactive).

What about the GI50 (NCI-H460) of the same molecule?
Its GI50 is 24.9 µM (inactive).

What about the GI50 (NCI/ADR-RES) of the same molecule?
Its GI50 is > 100 µM (inactive).

And the GI50 (OVCAR-4)?
Its GI50 is 30.1 µM (inactive).

And the GI50 (OVCAR-5)?
Its GI50 is 16.4 µM (inactive).

What about the GI50 (PC-3) of the same molecule?
The GI50 was 60.4 µM (inactive).

And the GI50 (SF-268)?
The GI50 was 8.43 µM (inactive).

What about the GI50 (SF-539) of the same molecule?
Its GI50 is > 100 µM (inactive).

And the GI50 (SK-MEL-28)?
The GI50 was > 100 µM (inactive).

What about the GI50 (SK-MEL-5) of the same molecule?
The GI50 was 70.5 µM (inactive).

What about the GI50 (UACC-62) of the same molecule?
Its GI50 is 41.9 µM (inactive).

What does the source list for `O=C1C(c2ccccc2)=[N+]([O-])c2ccccc21`?
GI50 (DU-145): 15.7 µM (inactive); GI50 (EKVX): 15.1 µM (inactive); GI50 (HOP-62): 18.7 µM (inactive); GI50 (Hs-578T): 29.8 µM (inactive); GI50 (K562): 3.15 µM (inactive); GI50 (KM12): 19.8 µM (inactive); GI50 (M14): 12.4 µM (inactive); GI50 (NCI-H460): 16.5 µM (inactive); GI50 (NCI/ADR-RES): 17.7 µM (inactive); GI50 (OVCAR-4): 4.04 µM (inactive); GI50 (OVCAR-5): 22.4 µM (inactive); GI50 (PC-3): 11.6 µM (inactive); GI50 (SF-268): 14.1 µM (inactive); GI50 (SF-539): 18.8 µM (inactive); GI50 (SK-MEL-28): 17.1 µM (inactive); GI50 (SK-MEL-5): 11.1 µM (inactive); GI50 (SK-OV-3): 17.6 µM (inactive); GI50 (UACC-62): 15.5 µM (inactive)

`O=C(O)c1ccccc1CC1Cc2cc3c(cc2C1)CCC3` was tested. Which GI50 (DU-145) did it give?
Its GI50 is > 100 µM (inactive).

And the GI50 (EKVX)?
The GI50 was > 100 µM (inactive).

What about the GI50 (HOP-62) of the same molecule?
The GI50 was > 100 µM (inactive).

What about the GI50 (Hs-578T) of the same molecule?
The GI50 was > 100 µM (inactive).

And the GI50 (IGROV-1)?
The GI50 was > 100 µM (inactive).

What about the GI50 (K562) of the same molecule?
The GI50 was > 100 µM (inactive).

What about the GI50 (KM12) of the same molecule?
Its GI50 is > 100 µM (inactive).

And the GI50 (M14)?
The GI50 was > 100 µM (inactive).

And the GI50 (NCI-H460)?
The GI50 was > 100 µM (inactive).

What about the GI50 (NCI/ADR-RES) of the same molecule?
Its GI50 is > 100 µM (inactive).

What about the GI50 (OVCAR-4) of the same molecule?
The GI50 was 80.5 µM (inactive).

What about the GI50 (OVCAR-5) of the same molecule?
Its GI50 is > 100 µM (inactive).

What about the GI50 (SF-268) of the same molecule?
Its GI50 is > 100 µM (inactive).

And the GI50 (SF-539)?
Its GI50 is > 100 µM (inactive).

And the GI50 (SK-MEL-28)?
Its GI50 is > 100 µM (inactive).

What about the GI50 (SK-MEL-5) of the same molecule?
Its GI50 is > 100 µM (inactive).

And the GI50 (SK-OV-3)?
The GI50 was > 100 µM (inactive).

And the GI50 (UACC-62)?
The GI50 was 92.3 µM (inactive).

With `CO[C@H]1O[C@@H]2CO[C@@H](c3ccccc3)O[C@H]2[C@@H]2CC=CCC[C@]12O` as the molecule, how does the GI50 (CAKI-1) read?
Its GI50 is > 100 µM (inactive).

What about the GI50 (DU-145) of the same molecule?
The GI50 was > 100 µM (inactive).

And the GI50 (EKVX)?
The GI50 was 36.8 µM (inactive).

And the GI50 (HOP-62)?
The GI50 was > 100 µM (inactive).

And the GI50 (Hs-578T)?
Its GI50 is 0.052 µM (active).

And the GI50 (IGROV-1)?
Its GI50 is 59.6 µM (inactive).

And the GI50 (K562)?
Its GI50 is 33.9 µM (inactive).

And the GI50 (KM12)?
The GI50 was 65.3 µM (inactive).

And the GI50 (M14)?
The GI50 was 72.6 µM (inactive).

What about the GI50 (NCI-H460) of the same molecule?
Its GI50 is 35.7 µM (inactive).

What about the GI50 (NCI/ADR-RES) of the same molecule?
The GI50 was 44.4 µM (inactive).

And the GI50 (OVCAR-4)?
Its GI50 is 57.3 µM (inactive).

What about the GI50 (OVCAR-5) of the same molecule?
The GI50 was > 100 µM (inactive).

And the GI50 (PC-3)?
Its GI50 is 40.9 µM (inactive).

And the GI50 (SF-268)?
Its GI50 is 21.8 µM (inactive).

And the GI50 (SK-MEL-28)?
Its GI50 is > 100 µM (inactive).

What about the GI50 (SK-MEL-5) of the same molecule?
The GI50 was 67.1 µM (inactive).

And the GI50 (SK-OV-3)?
The GI50 was > 100 µM (inactive).

And the GI50 (UACC-62)?
The GI50 was 63.4 µM (inactive).

With `C/C=C/C(C#N)(Cc1ccccc1)OP1(=O)OC(c2ccccc2)C(C)N1C` (centres undefined) as the molecule, how does the GI50 (CAKI-1) read?
The GI50 was > 100 µM (inactive).

What about the GI50 (DU-145) of the same molecule?
Its GI50 is > 100 µM (inactive).

What about the GI50 (EKVX) of the same molecule?
Its GI50 is 71.6 µM (inactive).

What about the GI50 (HOP-62) of the same molecule?
Its GI50 is > 100 µM (inactive).

And the GI50 (Hs-578T)?
Its GI50 is 89.5 µM (inactive).

What about the GI50 (IGROV-1) of the same molecule?
The GI50 was 95.3 µM (inactive).

And the GI50 (K562)?
The GI50 was 38.5 µM (inactive).

And the GI50 (KM12)?
Its GI50 is 45.6 µM (inactive).

What about the GI50 (M14) of the same molecule?
The GI50 was > 100 µM (inactive).

And the GI50 (NCI-H460)?
Its GI50 is 43.6 µM (inactive).

And the GI50 (NCI/ADR-RES)?
Its GI50 is 72.4 µM (inactive).

And the GI50 (OVCAR-5)?
The GI50 was > 100 µM (inactive).

What about the GI50 (PC-3) of the same molecule?
The GI50 was 58.6 µM (inactive).

What about the GI50 (SF-268) of the same molecule?
The GI50 was > 100 µM (inactive).

What about the GI50 (SF-539) of the same molecule?
Its GI50 is > 100 µM (inactive).

And the GI50 (SK-MEL-28)?
Its GI50 is > 100 µM (inactive).

And the GI50 (SK-MEL-5)?
The GI50 was 48.9 µM (inactive).

And the GI50 (SK-OV-3)?
Its GI50 is > 100 µM (inactive).

What about the GI50 (UACC-62) of the same molecule?
Its GI50 is 56.5 µM (inactive).

Source: ChEMBL document CHEMBL1201862, “PubChem BioAssay data set” (2004)
